The IC50 is the concentration needed to halve the response being measured.

For data set [1], the system named is Peripheral blood mononuclear cells (PBMCs). The data set is described as follows: In-vitro pyrogen test (IL-1β, IL-6, TNF-α by ELISA). The class given is cell-based. How it is done:
Generally, pyrogenicity of any molecule can be measured by the over production of pro-inflammatory cytokines IL-1β, IL-6, and TNFα, following an activation of monocytes in-vitro, which inturn, could be an indicative of increased reactogenicity in-vivo.
Frozen Peripheral blood mononuclear cells (PBMCs) were revived and plated (0.5×10^6 cells/ml, 100 μl) in 96 well round bottom cell culture plate. Cells were supplemented with RPMI 1640 medium (Gibco Laboratories, Grand Island, N.Y.) containing fetal bovine serum (10%), glutamine (2 mM), and pencillin-streptomycin. Cells further stimulated with LPS (10 ng/ml) or endotoxin (1 EU/ml, 0.5 EU/ml, 0.25 EU/ml, 0.125 EU/ml) or MDP-MN (10 or 100 μg/ml). Cells stimulated with LPS or endotoxin was incubated for 4 hrs where as cells stimulated with MDP derivatives of the present invention kept for incubation in humidified CO2 chamber at 37° C. for 24 hrs. After stimulation, cell culture supernatant was collected and cytokines (such as IL-1β, IL-6 or TNF-α) were measured by ELISA. Concentrations each cytokine produced by PBMCs in the presence of reference standard endotoxin at 0.5 EU/ml was measured in triplicates. Threshold levels were calculated for each cytokine, using the cytokine levels produced by the reference standard endotoxin at 0.5 EU/ml (Marina et al., Vaccine 30 (2012) 4859-4865).
To determine Interleukin 1β, Enzyme Linked Immunosorbent Assay (ELISA) was performed according to the instruction manual (ebioscience, cat#88-7010). Briefly, capture antibody (cat#14-7018-67, eBioscience) was first diluted 1:250 using coating buffer and added 100 μL to each well in 96-well microplate. Plates were incubated overnight at 2-8° C. Coated plates were then washed with wash buffer (PBST). After washing, these plates were blocked using 1× assay diluent for 1 hr at room temperature followed by washing with PBST. A series of 2 fold dilutions were made from top standard ranging from 4 to 500 pg/mL, to make the standard curve. Similarly, 4 fold dilutions (1:4, 1:16 & 1:64) of cell supernatant obtained from PBMCs stimulation with MDP-MN were prepared. Aliquot (100 μL) of diluted standards or cell supernatants were added to well in duplicates and the plate was incubated at room temperature for 2 hrs. After washing the plate, 100 μL/well of detection antibody (cat#33-7016-67) diluted in 1× Assay diluent was added and incubated at room temperature for 1 hr. Later, 100 μL/well of Avidin-HRP* diluted in 1× Assay diluent was added and incubated at room temperature for 30 minutes. Finally, after washes, 100 μL of substrate solution was added to each well and incubated at RT for 15 minutes. Reaction was stopped by the addition of 50 μL of 2N H2SO4 to each well and the plate was read at 450 nm. […]
(An ELISA detects its analyte on a solid surface through an enzyme-linked reagent.)

The subject of another data set is BALB/c mice. The data set can be described thus: OVA-specific IgG after immunization (indirect ELISA). It counts as in vivo. The following applies: s.c. Days 1 and 15. How it is done: Male BALB/c mice were immunized subcutaneously with OVA 100 μg alone or with OVA 100 μg dissolved in saline containing analogues (7.5, 15 or 30 μg) on Days 1 and 15. Sera were collected 2 weeks after the last immunization. OVA-specific IgG antibodies in the sera were measured by an Indirect ELISA. The values are presented as log 2 titre.

In another data set the test system is splenocytes. The data set is described as follows: Splenocyte proliferation (MTT). It counts as cell-based, mice. The following applies: mouse splenocytes, LPS and Con-A, 48 h. How it is done:
Spleens were isolated from mice and were processed to single cell suspension. 96 well flat bottom Micro titer plates were seeded with 1×10^5 cells/well with RPMI1640 media. Cells were treated with compounds, OVA, Con A (2 μg/mL) and LPS (10 μg/mL) or medium giving a final volume of […]. Plates were incubated at 37° C. with 5% CO2 in an incubator. After 48 h of incubation […] of Triazolyl blue Tetrazolium Bromide (MTT) solution was added to each well, incubated for next 4 h. Untransformed MTT was removed from each well by aspirating the supernatant ([…]) and replaced with DMSO. The absorbance was read at 570 nm after 15 min.
Immunostimulating substances act through specific (antigen-dependent) T lymphocytes, B lymphocytes, and dendritic cells and also through non-specific mechanisms of action (antigen-independent) that involves granulocytes, macrophages, and NK cells. Being a secondary lymphoid organ, spleen contains a heterogeneous population of lymphocytes to examine the immunostimulant activity. However, proliferations of immune cells like T and B cells are the benchmark for immune potentiation. Cells were treated with or without OVA or in combination with MDP and MDP-MN. Type of immune response in all treated groups was measured with LPS and Con-A splenocyte proliferation assays depicted in FIG. 3. […] This is essential for B cell expansion.

A further data set relates to J774.2A cells. The data set can be described thus: Cytotoxicity assay (MTT). It counts as cell-based. The following applies: 24 hrs, read-out: IC50 (50% cell death or toxicity). How it is done:
Details of an assay are as explained in example 2.2.
J774.2A cells (2×10^4/well) were plated and incubated overnight. Next day, cells were treated with various concentrations of MDP-MN (10 fold dilutions with a concentration ranging from 0.005 mg/ml to 0.5 mg/ml & 2 mg/ml) and cultured for 24 hrs. Supernatant was discarded and cells were treated with 100 μl of MTT [3-(4,5-Dimethylthiazol-2-yl)-2,5-Diphenyltetrazolium Bromide] (5 mg/ml) and incubated for 3-4 hrs until formozan crystals were formed. Later, supernatant was discarded and crystals were dissolved with DMSO for 5-10 min. Absorbance was read at 540 nm. FIG. 2 represents cell toxicity effect of MDP-MN. X-axis represents concentration in log scale and Y-axis represents % toxicity.

Converted amounts (≈) assume the structure as drawn.

In the case of `C[C@H](NC(=O)[C@@H](C)O[C@H]1[C@H](O)[C@@H](CO)OC(O)[C@@H]1NC(=O)[C@H](O)CO)C(=O)N[C@H](CCC(=O)O)C(N)=O` (stereo partly drawn) [MDP-MN, (4R)-5-amino-4-((2S)-2-((2R)-2-(((3R,4R,5S,6R)-3-((2,3-dihydroxypropanamido))-2,5-dihydroxy-6-(hydroxymethyl)tetrahydro-2H-pyran-4-yl)oxy)propanamido)propanamido)-5-oxopentanoic acid], the “IL-1β level vs threshold” value in data set [1] (MDP-MN at both 10 & 100 μg/ml, 24 hrs, (endotoxin 0.5 EU/ml)) is reported as “within the threshold value”. Also, the “TNF-α level vs threshold” value in data set [1] (MDP-MN at both 10 & 100 μg/ml, 24 hrs, threshold 753 μg/ml) is recorded as “within the threshold value”. Besides, the “IL-6 level vs threshold” value in data set [1] (MDP-MN at both 10 & 100 μg/ml, 24 hrs, threshold 3110 μg/ml) is “within the threshold value”. In data set [1] (in-vitro pyrogen test), the pyrogenicity result is “doesn't cause any pyrogenicity”. Also, the “Log(2) IgG Antibody Titre” value in the data set on BALB/c mice (adjuvant 7.5 μg per mouse with OVA 100 μg) is on record as “nearly equal antibody titer”; with BALB/c mice (adjuvant 15 μg per mouse with OVA 100 μg), “highest serum IgG responses”; with BALB/c mice (adjuvant 30 μg per mouse with OVA 100 μg) it was “highest serum IgG responses”. Further, the splenocyte proliferation result in the data set on splenocytes is listed as “inducing the LPS mediated splenocyte proliferation”. For the same compound, the IC50 in the data set with J774.2A cells was determined as 99.2 µg/mL (≈ 184 µM).
